Assay results reported in patent publication US20110263564A1, “PYRIDINE, BICYCLIC PYRIDINE AND RELATED ANALOGS AS SIRTUIN MODULATORS” (Sirtris Pharmaceuticals, Inc., priority 2008, published 2011).

Target: T1, SIRT1 (Homo sapiens, UniProt Q96EB6)
T1 sequence (Q96EB6 1-747): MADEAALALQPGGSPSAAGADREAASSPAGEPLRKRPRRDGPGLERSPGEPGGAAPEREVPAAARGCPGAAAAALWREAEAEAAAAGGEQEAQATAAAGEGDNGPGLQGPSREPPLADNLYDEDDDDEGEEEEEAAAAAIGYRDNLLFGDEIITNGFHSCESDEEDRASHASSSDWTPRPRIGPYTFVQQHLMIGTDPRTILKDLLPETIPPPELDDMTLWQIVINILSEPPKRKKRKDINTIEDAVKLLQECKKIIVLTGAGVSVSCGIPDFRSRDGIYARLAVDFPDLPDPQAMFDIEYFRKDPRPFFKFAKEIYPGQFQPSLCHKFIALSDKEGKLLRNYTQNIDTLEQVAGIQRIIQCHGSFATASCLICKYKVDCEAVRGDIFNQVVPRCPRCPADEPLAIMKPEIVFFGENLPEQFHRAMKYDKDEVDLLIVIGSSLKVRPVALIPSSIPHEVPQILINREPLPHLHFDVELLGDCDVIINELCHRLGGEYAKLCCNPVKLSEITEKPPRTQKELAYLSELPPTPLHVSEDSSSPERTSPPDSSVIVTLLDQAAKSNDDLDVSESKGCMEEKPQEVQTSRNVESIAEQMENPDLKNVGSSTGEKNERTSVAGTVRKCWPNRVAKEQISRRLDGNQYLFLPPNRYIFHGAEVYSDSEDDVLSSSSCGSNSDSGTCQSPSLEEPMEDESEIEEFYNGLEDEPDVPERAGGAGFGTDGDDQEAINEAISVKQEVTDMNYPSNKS
Test: Mass spectrometry based assay of SIRT1 activity (deacetylation of a p53-based acetylated peptide)
Type: biochemical
Details: 10 nM SIRT1, 0.5 μM peptide substrate, 120 μM βNAD+, 25 minutes at 25° C.; for Emax: read-out: % FOLD ACT. (percent maximum fold activation)
From the text: A mass spectrometry based assay was used to identify modulators of SIRT1 activity. The mass spectrometry based assay utilizes a peptide having 20 amino acid residues as follows: Ac-EE-K(biotin)-GQSTSSHSK(Ac)NleSTEG-K(5TMR)-EE-NH2 (SEQ ID NO: 1) wherein K(Ac) is an acetylated lysine residue and Nle is a norleucine. The peptide is labeled with the fluorophore 5TMR (excitation 540 nm/emission 580 nm) at the C-terminus. The sequence of the peptide substrate is based on p53 with several modifications. In addition, the methionine residue naturally present in the sequence was replaced with the norleucine because the methionine may be susceptible to oxidation during synthesis and purification.
The mass spectrometry assay is conducted as follows: 0.5 μM peptide substrate and 120 μM βNAD^+ is incubated with 10 nM SIRT1 for 25 minutes at 25° C. in a reaction buffer (50 mM Tris-acetate pH 8, 137 mM NaCl, 2.7 mM KCl, 1 mM MgCl2, 5 mM DTT, 0.05% BSA). Test compounds may be added to the reaction as described above. […] After the 25 minute incubation with SIRT1, 10 μL of 10% formic acid is added to stop the reaction. Reactions are sealed and frozen for later mass spec analysis. Determination of the mass of the substrate peptide allows for precise determination of the degree of acetylation (i.e. starting material) as compared to deacetylated peptide (product).
A control for inhibition of sirtuin activity is conducted by adding 1 μL of 500 mM nicotinamide as a negative control at the start of the reaction (e.g., permits determination of maximum sirtuin inhibition). A control for activation of sirtuin activity is conducted using 10 nM of sirtuin protein, with 1 μL of DMSO in place of compound, to determine the amount of deacetylation of the substrate at a given timepoint within the linear range of the assay. This timepoint is the same as that used for test compounds and, within the linear range, the endpoint represents a change in velocity.
For the above assay, SIRT1 protein was expressed and purified as follows. […] The protein was expressed by induction with 1 mM IPTG as an N-terminal His-tag fusion protein at 18° C. overnight and harvested at 30,000×g. Cells were lysed with lysozyme in lysis buffer (50 mM Tris-HCl, 2 mM Tris[2-carboxyethyl]phosphine (TCEP), 10 μM ZnCl2, 200 mM NaCl) and further treated with sonication for 10 min for complete lysis. The protein was purified over a Ni-NTA column (Amersham) and fractions containing pure protein were pooled, concentrated and run over a sizing column (Sephadex S200 26/60 global). The peak containing soluble protein was collected and run on an Ion-exchange column (MonoQ). Gradient elution (200 mM-500 mM NaCl) yielded pure protein. This protein was concentrated and dialyzed against dialysis buffer (20 mM Tris-HCl, 2 mM TCEP) overnight. The protein was aliquoted and frozen at −80° C. until further use.
Sirtuin modulating compounds that activated SIRT1 were identified using the assay described above and are shown below in Table 1 for compounds of Formula (III)). The EC1.5 values represent the concentration of test compounds that result in 150% activation of SIRT1. The EC1.5 values for the activating compounds in Table 1 are represented by A (EC1.5<10.0 μM), B (EC1.5 10-25 μM), C (EC1.5>25 μM). The percent maximum fold activation is represented by A (Fold activation>200%) or B (Fold Activation<200%); “NT” means not tested; “ND” mean not determinable.

| Compound | EC1.5 (concentration of test compound that results in 150% activation of SIRT1) | Emax [%] |
| --- | --- | --- |
| O=C(NC1CCCc2ccc(-c3cccc(C(F)(F)F)c3)nc21)c1cccc(N2CCOCC2)n1 (stereo not drawn) [Compound 236] | A (EC1.5<10.0 μM) | > 200 |
| O=C(NC1CCCc2ccc(-c3cccc(C(F)(F)F)c3)nc21)c1cccc(CN2CCCC2)c1 (stereo not drawn) [Compound 237] | B (EC1.5 10-25 μM) | < 200 |
| O=C(NC1CCCc2ccc(-c3cccc(C(F)(F)F)c3)nc21)c1ccnc(CN2CCOCC2)c1 (stereo not drawn) [Compound 238] | C (EC1.5>25 μM) | – |
| O=C(NC1CCCc2ccc(-c3cccc(C(F)(F)F)c3)nc21)c1ccnc(CN2CCCC2)c1 (stereo not drawn) [Compound 239] | C (EC1.5>25 μM) | – |
| O=C(NC1CCCc2ccc(-c3cccc(C(F)(F)F)c3)nc21)c1ccc(CN2CCOCC2)nc1 (stereo not drawn) [Compound 241] | C (EC1.5>25 μM) | – |
| O=C(NC1CCCc2ccc(-c3cccc(C(F)(F)F)c3)nc21)c1cccc(C2CCNC2)c1 (stereo not drawn) [Compound 242] | A (EC1.5<10.0 μM) | > 200 |
| O=C(NC1CCCc2ccc(-c3cccc(C(F)(F)F)c3)nc21)c1cccnc1OCC(O)CO (stereo not drawn) [Compound 243] | C (EC1.5>25 μM) | – |
| O=C(NC1CCCc2ccc(-c3cccc(C(F)(F)F)c3)nc21)c1ccnc(OCC(O)CO)c1 (stereo not drawn) [Compound 244] | A (EC1.5<10.0 μM) | > 200 |
| O=C(NC1CCCc2ccc(-c3cccnc3)nc21)c1cnccn1 (stereo not drawn) [Compound 246] | C (EC1.5>25 μM) | – |
| O=C(NC1CCCc2ccc(-c3ccncc3)nc21)c1cnccn1 (stereo not drawn) [Compound 247] | C (EC1.5>25 μM) | – |
| Cc1ccc(-c2ccc3c(n2)C(NC(=O)c2cnccn2)CCC3)cn1 (stereo not drawn) [Compound 248] | C (EC1.5>25 μM) | – |
| Cc1cc(-c2ccc3c(n2)C(NC(=O)c2cnccn2)CCC3)ccn1 (stereo not drawn) [Compound 249] | C (EC1.5>25 μM) | – |
| CS(=O)(=O)c1cccc(-c2ccc3c(n2)C(NC(=O)c2cnccn2)CCC3)c1 (stereo not drawn) [Compound 250] | C (EC1.5>25 μM) | – |
| O=C(NC1CCCc2ccc(-c3cc(C(F)(F)F)ccc3F)nc21)c1cnccn1 (stereo not drawn) [Compound 251] | A (EC1.5<10.0 μM) | > 200 |
| O=C(NC1CCCc2ccc(-c3cccc(OC(F)(F)F)c3)nc21)c1cnccn1 (stereo not drawn) [Compound 252] | B (EC1.5 10-25 μM) | > 200 |
| O=C(NC1CCCc2ccc(-c3ccccc3C(F)(F)F)nc21)c1cnccn1 (stereo not drawn) [Compound 253] | C (EC1.5>25 μM) | – |
| O=C(NC1CCCc2ccc(-c3ccc(F)c(C(F)(F)F)c3)nc21)c1cnccn1 (stereo not drawn) [Compound 254] | A (EC1.5<10.0 μM) | < 200 |
| O=C(NC1CCCc2ccc(-c3cccc(C(F)(F)F)c3F)nc21)c1cnccn1 (stereo not drawn) [Compound 256] | C (EC1.5>25 μM) | – |
| O=C(NC1CCCc2ccc(-c3cccnc3O)nc21)c1cnccn1 (stereo not drawn) [Compound 257] | C (EC1.5>25 μM) | – |

| Compound | EC1.5 (concentration of test compound that results in 150% activation of SIRT1) | Emax [%] |
| --- | --- | --- |
| CC(C)c1ccccc1-c1ccc2c(n1)C(NC(=O)c1cnccn1)CCC2 (stereo not drawn) [Compound 258] | C (EC1.5>25 μM) | – |
| O=C(NC1CCCc2ccc(-c3ccc(N4CCCC4)cc3)nc21)c1cnccn1 (stereo not drawn) [Compound 259] | C (EC1.5>25 μM) | – |
| O=C(NC1CCCc2ccc(-c3cccc(N4CCCC4)c3)nc21)c1cnccn1 (stereo not drawn) [Compound 260] | C (EC1.5>25 μM) | – |
| O=C(NC1CCCc2ccc(-c3cccc(N4CCOCC4)c3)nc21)c1cnccn1 (stereo not drawn) [Compound 261] | C (EC1.5>25 μM) | – |
| O=C(Nc1ccnc(N2CCCC2)c1)C1CCCc2ccc(-c3cccc(C(F)(F)F)c3F)nc21 (stereo not drawn) [Compound 273] | C (EC1.5>25 μM) | – |
| O=C(Nc1ccnc(N2CCCC2)c1)C1CCCc2ccc(-c3cccc(N4CCOCC4)c3)nc21 (stereo not drawn) [Compound 278] | A (EC1.5<10.0 μM) | < 200 |
| O=C(Nc1nccs1)C1CCCc2ccc(-c3cccc(C(F)(F)F)c3)nc21 (stereo not drawn) [Compound 279] | C (EC1.5>25 μM) | – |
| Cc1nc(NC(=O)C2CCCc3ccc(-c4cccc(C(F)(F)F)c4)nc32)sc1C (stereo not drawn) [Compound 281] | C (EC1.5>25 μM) | – |
| Cc1cc(NC(=O)C2CCCc3ccc(-c4cccc(C(F)(F)F)c4)nc32)sn1 (stereo not drawn) [Compound 282] | B (EC1.5 10-25 μM) | < 200 |
| O=C(Nc1ccccn1)C1CCCc2ccc(-c3cccc(C(F)(F)F)c3)nc21 (stereo not drawn) [Compound 284] | C (EC1.5>25 μM) | – |
| O=C(Nc1cccnc1)C1CCCc2ccc(-c3cccc(C(F)(F)F)c3)nc21 (stereo not drawn) [Compound 285] | C (EC1.5>25 μM) | – |
| O=C(Nc1ccncc1)C1CCCc2ccc(-c3cccc(C(F)(F)F)c3)nc21 (stereo not drawn) [Compound 286] | C (EC1.5>25 μM) | – |
| O=C(NC1CCOCC1)C1CCCc2ccc(-c3cccc(C(F)(F)F)c3)nc21 (stereo not drawn) [Compound 287] | C (EC1.5>25 μM) | – |
| Cc1cc(NC(=O)C2CCCc3ccc(-c4cccc(C(F)(F)F)c4)nc32)no1 (stereo not drawn) [Compound 288] | C (EC1.5>25 μM) | – |
| O=C(Nc1cnccn1)C1CCCc2ccc(-c3cccc(C(F)(F)F)c3)nc21 (stereo not drawn) [Compound 289] | B (EC1.5 10-25 μM) | < 200 |
| Cc1ccnc(NC(=O)C2CCCc3ccc(-c4cccc(C(F)(F)F)c4)nc32)n1 (stereo not drawn) [Compound 292] | C (EC1.5>25 μM) | – |
| O=C(Nc1nc(CN2CCOCC2)cs1)C1CCCc2ccc(-c3cccc(C(F)(F)F)c3)nc21 (stereo not drawn) [Compound 294] | A (EC1.5<10.0 μM) | > 200 |
| O=C(Nc1nc2ccccc2s1)C1CCCc2ccc(-c3cccc(C(F)(F)F)c3)nc21 (stereo not drawn) [Compound 295] | C (EC1.5>25 μM) | – |
